Source: article PMC7078782 (Drug Design, Development and Therapy, 2020)

How the values were obtained:
[1] = Stock solution stability; type: physicochemical; conditions: under the experimental conditions
[2] = Stability of QC samples in beagle plasma; type: in vitro ADME; conditions: under the experimental conditions (room temperature, autosampler, freeze-thaw, −20°C)
[3] = cats; cited from earlier work
[4] = Pharmacokinetic study in beagles after intramuscular injection of parecoxib; conditions: beagle, dog, plasma, im, 1.33 mg/kg, after intramuscular injection of 1.33 mg/kg parecoxib, n=6, mean ± SD
[5] = liver; cited from earlier work

Compound | Stock solution stability (in words) [1] | Stability in beagle plasma (in words) [2] | t1/2 of conversion to valdecoxib and propionic acid [3] | Tmax ([4]; Tmax, beagle plasma) [h] | half-life ([4]; t1/2, beagle plasma) [h] | Share of elimination by sulfonamide glucose hydroformylation [5]
Cc1ccc(-c2cc(C(F)(F)F)nn2-c2ccc(S(N)(=O)=O)cc2)cc1 [IS, Celecoxib] | stabilized | – | – | – | – | –
CCC(=O)NS(=O)(=O)c1ccc(-c2c(-c3ccccc3)noc2C)cc1 [Parecoxib] | stabilized | stable | about 24 mins | – | – | –
Cc1onc(-c2ccccc2)c1-c1ccc(S(N)(=O)=O)cc1 [Valdecoxib] | stabilized | stable | – | ~1.36 | ~2.27 | about 20%
